Results from US20200024278A1, “COMPOSITION COMPRISING ANTIBIOTIC COMPOUND AND AN HETEROCYCLIC COMPOUND AND THEIR USE IN PREVENTING OR TREATING BACTERIAL INFECTIONS” (MUTABILIS, priority 2016, published 2020).
Structures can show the parent of a compound that is named as a salt.

Legend:
Test in all cases: MIC, broth microdilution (CLSI), substance alone or ATB combined with compound at 4 or 8 μg/mL
PAE UFR90 = type: cell-based, P. aeruginosa; settings: PAE UFR90; for MIC ATB combined with Example: Example @8 μg/ml
In short: (§1)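 Growth inhibition endpoint, read visually after 16-20 h at 35° C in ambient air. Cation-adjusted Mueller-Hinton broth, inoculum 5·10^5 CFU/mL, CLSI M7-A7 protocol.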

PAE 105250 = type: cell-based, P. aeruginosa; settings: PAE 105250; for MIC ATB combined with Example: Example @8 μg/ml
In short: as §1

PAE UFR48 = type: cell-based, P. aeruginosa; settings: PAE UFR48; for MIC ATB combined with Example: Example @8 μg/ml
In short: as §1

ECO 190317 = type: cell-based, E. coli; settings: ECO 190317; for MIC ATB combined with Example: Example @8 μg/ml
In short: as §1

ECO UFR39 = type: cell-based, E. coli; settings: ECO UFR39; for MIC ATB combined with Example: Example @8 μg/ml
In short: as §1

SAU 29213 = type: cell-based, S. aureus; settings: for MIC ATB combined with Example: SAU 29213, Example @8 μg/ml
In short: as §1

SPN 49619 = type: cell-based, S. pneumoniae; settings: SPN 49619; for MIC ATB combined with Example: Example @8 μg/ml
In short: as §1

ECL P99 = type: cell-based, E. cloacae; settings: ECL P99; for MIC ATB combined with Example: Example @8 μg/ml
In short: as §1

ABA 19606 = type: cell-based, A. baumannii; settings: Acinetobacter baumannii, substance alone, read-out: MIC
In short: as §1

ABA UFR159 = type: cell-based, A. baumannii; settings: Acinetobacter baumannii, substance alone, read-out: MIC
In short: as §1

KPN UFR42 = type: cell-based, K. pneumoniae; settings: KPN UFR42; for MIC ATB combined with Example: Example @8 μg/ml
In short: as §1

KPN 6299 = type: cell-based, K. pneumoniae; settings: Example @8 μg/ml
In short: as §1

KPN BAA-1898 = type: cell-based, K. pneumoniae; settings: KPN BAA-1898; for MIC ATB combined with Example: Example @8 μg/ml
In short: as §1

[1] = Pseudomonas aeruginosa, substance alone, read-out: MIC
[2] = Escherichia coli, substance alone, read-out: MIC

Compound: NCCCn1c2c(sc1=O)C1CN(C2)C(=O)N1OS(=O)(=O)O (stereo not shown) [Example 10, [5-(3-aminopropyl)-4,9-dioxo-3-thia-5,8,10-triaza-tricyclo[6.2.1.0^2,6]undec-2(6)-en-10-yl] hydrogen sulfate]
- MIC ATB combined with Example (PAE UFR90; ATB ATM): <0.031 µg/mL
- MIC ATB combined with Example (PAE UFR90; ATB FEP): <0.031 µg/mL
- MIC ATB combined with Example (PAE UFR90; ATB FOS): <0.125 µg/mL
- MIC ATB combined with Example (PAE UFR90; ATB MEM): <0.031 µg/mL
- MIC ATB combined with Example (PAE UFR90; ATB PIP): <0.031 µg/mL
- MIC (PAE UFR90; [1]): 4 µg/mL
- MIC ATB combined with Example (PAE 105250; ATB ATM): <0.031 µg/mL
- MIC ATB combined with Example (PAE 105250; ATB FEP): <0.031 µg/mL
- MIC ATB combined with Example (PAE 105250; ATB FOS): <0.125 µg/mL
- MIC ATB combined with Example (PAE 105250; ATB MEM): <0.031 µg/mL
- MIC ATB combined with Example (PAE 105250; ATB PIP): <0.031 µg/mL
- MIC (PAE 105250; [1]): 4 µg/mL
- MIC ATB combined with Example (PAE UFR48; ATB ATM): <0.031 µg/mL
- MIC ATB combined with Example (PAE UFR48; ATB FEP): <0.031 µg/mL
- MIC ATB combined with Example (PAE UFR48; ATB FOS): <0.125 µg/mL
- MIC ATB combined with Example (PAE UFR48; ATB MEM): <0.031 µg/mL
- MIC ATB combined with Example (PAE UFR48; ATB PIP): <0.031 µg/mL
- MIC (PAE UFR48; [1]): 4 µg/mL
- MIC ATB combined with Example (ECO 190317; ATB ATM): <0.031 µg/mL
- MIC ATB combined with Example (ECO 190317; ATB FEP): <0.031 µg/mL
- MIC ATB combined with Example (ECO 190317; ATB FOS): <0.125 µg/mL
- MIC ATB combined with Example (ECO 190317; ATB MEM): <0.031 µg/mL
- MIC ATB combined with Example (ECO 190317; ATB PIP): <0.031 µg/mL
- MIC (ECO 190317; [2]): 0.5 µg/mL
- MIC ATB combined with Example (ECO UFR39; ATB ATM): <=0.031 μg/mL
- MIC ATB combined with Example (ECO UFR39; ATB FEP): <=0.031 μg/mL
- MIC ATB combined with Example (ECO UFR39; ATB FOS): <0.125 µg/mL
- MIC ATB combined with Example (ECO UFR39; ATB MEM): <0.031 µg/mL
- MIC ATB combined with Example (ECO UFR39; ATB PIP): <0.031 µg/mL
- MIC (ECO UFR39; [2]): 2 µg/mL
- MIC ATB combined with Example (SAU 29213; ATB ATM): >32 µg/mL
- MIC ATB combined with Example (SAU 29213; ATB FEP): 0.5 µg/mL
- MIC ATB combined with Example (SAU 29213; ATB FOS): <=0.125 μg/mL
- MIC ATB combined with Example (SAU 29213; ATB MEM): <=0.031 μg/mL
- MIC ATB combined with Example (SAU 29213; ATB PIP): 1 µg/mL
- MIC (SAU 29213; Staphylococcus aureus, substance alone, SAU 29213 (MSSA 29213), read-out: MIC): 32 µg/mL
- MIC ATB combined with Example (SPN 49619; ATB ATM): <0.031 µg/mL
- MIC ATB combined with Example (SPN 49619; ATB FEP): <0.031 µg/mL
- MIC ATB combined with Example (SPN 49619; ATB FOS): <0.125 µg/mL
- MIC ATB combined with Example (SPN 49619; ATB MEM): <0.031 µg/mL
- MIC ATB combined with Example (SPN 49619; ATB PIP): <0.031 µg/mL
- MIC (SPN 49619; Streptococcus pneumoniae, substance alone, read-out: MIC): 1 µg/mL
- MIC ATB combined with Example (ECL P99; ATB ATM): <0.031 µg/mL
- MIC ATB combined with Example (ECL P99; ATB FEP): <0.031 µg/mL
- MIC ATB combined with Example (ECL P99; ATB FOS): <0.125 µg/mL
- MIC ATB combined with Example (ECL P99; ATB MEM): <0.031 µg/mL
- MIC ATB combined with Example (ECL P99; ATB PIP): <0.031 µg/mL
- MIC (ECL P99; Enterobacter cloacae, substance alone, read-out: MIC): 2 µg/mL
- MIC (ABA 19606): 32 µg/mL
- MIC (ABA UFR159): > 32 µg/mL
- MIC ATB combined with Example (KPN UFR42; ATB ATM): 0.063 µg/mL
- MIC ATB combined with Example (KPN UFR42; ATB FEP): <=0.031 μg/mL
- MIC ATB combined with Example (KPN UFR42; ATB FOS): 8 µg/mL
- MIC ATB combined with Example (KPN UFR42; ATB MEM): >32 µg/mL
- MIC ATB combined with Example (KPN UFR42; ATB PIP): >32 µg/mL
- MIC (KPN UFR42; Klebsiella pneumoniae, substance alone, read-out: MIC): > 32 µg/mL
- MIC ATB combined with Example (KPN 6299; ATB ATM): <=0.031 μg/mL
- MIC ATB combined with Example (KPN 6299; ATB FEP): 0.063 µg/mL
- MIC ATB combined with Example (KPN 6299; ATB FOS): 32 µg/mL
- MIC ATB combined with Example (KPN 6299; ATB MEM): 0.063 µg/mL
- MIC ATB combined with Example (KPN 6299; ATB PIP): 1 µg/mL
- MIC ATB combined with Example (KPN BAA-1898; ATB ATM): <=0.031 μg/mL
- MIC ATB combined with Example (KPN BAA-1898; ATB FEP): <=0.031 μg/mL
- MIC ATB combined with Example (KPN BAA-1898; ATB FOS): 2 µg/mL
- MIC ATB combined with Example (KPN BAA-1898; ATB MEM): <=0.031 μg/mL
- MIC ATB combined with Example (KPN BAA-1898; ATB PIP): <=0.031 μg/mL
- MIC (KPN BAA-1898; Klebsiella pneumoniae, BAA1898, substance alone, read-out: MIC): 16 µg/mL
